Like-named read-outs stand apart in the source and are kept apart here. Square brackets hold non-standard residues; d marks the D form. Peptide text beside a SMILES is read from it. * marks the point of attachment. Sta = CC(C)C[C@H](N)[C@@H](O)CC(=O)O; Isovaleryl = CC(C)CC(=O)*

The conditions of series [1]: amide bond, DPPA, Et3N, DMF, 1.75 mM, 4.0 °C.
For series [2], the system named is conscious sodium-deficient Rhesus monkeys. The series is described as follows: intravenous evaluation of renin inhibitors in conscious sodium-deficient Rhesus monkeys (blood pressure lowering). It is filed as in vivo, Rhesus monkey. The following applies: i.v. bolus, mean arterial pressure. From the text: The following methods were used for in vivo evaluation of the renin inhibitors of Formula I: Intravenous evaluation of renin inhibitors in concious sodium-deficient Rhesus monkeys: Rhesus monkeys, male and female, weighing 2.6-4.5 Kg, were surgically prepared with chronic arterial and venous catheters and vascular access ports for direct monitoring of mean arterial pressure (MAP) and heart rate (HR). The animals were maintained on a low sodium diet (1.2 mmol Na/day) plus friut for a week, and administered LASIX (furosemide) at 2.5 mg/Kg, intramuscularly the evening prior to the experiment. […] The inhibitors were administered by bolus injection using 0.5% acetic acid-5% dextrose in water as the vehicle (0.4 ml/Kg), and MAP and HR were measured. […] PRA was determined as described above. […] A projected ED50 dose for each inhibitor was calculated using the following furmula: ED50 (Test Inhibitor, umoles/Kg)=ED50 (SCRIP)×[IC50 (Test Inhibitor)/IC50 (SCRIP)], where the IC50 values were determined against human plasma renin. […] Percent inhibition of monkey PRA, changes in MAP and HR were calculated and plotted against time. […] The inhibitors were administered orally as a solution (2.5 ml/Kg) in 0.1M citric acid, and MAP and HR were measured over time. […] Percent inhibition of primate PRA and peak changes in MAP and HR were calculated. […]

Consider `COC(=O)[C@H]1CCCCNC(=O)CC[C@H](NC(=O)OC(C)(C)C)C(=O)N[C@@H](CC2CCCCC2)[C@H]1O`, for which the ring closure, yield of all isomers in series [1] (from COC(=O)[C@@H](CCCCN)[C@H](O)[C@H](CC1CCCCC1)NC(=O)[C@H](CCC(=O)O)NC(=O)OC(C)(C)C, 120.3 h) is 62%.

`CC[C@H](C)CNC(=O)[C@H]1CCCNC(=O)CC[C@H](NC(=O)OC(C)(C)C)C(=O)N[C@@H](CC2CCCCC2)[C@H]1O` yielded a ring closure, yield of all isomers in series [1] (from CC[C@H](C)CNC(=O)[C@@H](CCCN)[C@H](O)[C@H](CC1CCCCC1)NC(=O)[C@H](CCC(=O)O)NC(=O)OC(C)(C)C, 145.0 h) of 18%.

Take `CC(C)CC(=O)N[C@@H](Cc1cnc[nH]1)C(=O)N1CCC[C@H]1C(=O)N[C@@H](Cc1ccccc1)C(=O)N[C@@H](Cc1cnc[nH]1)C(=O)N[C@@H](CC(C)C)[C@@H](O)CC(=O)N[C@@H](CC(C)C)C(=O)N[C@@H](Cc1ccccc1)C(N)=O` [SCRIP, Iva-His-Pro-Phe-His-Sta-Leu-Phe-NH2] (Isovaleryl-HPFH[Sta]LF-NH2): the “ED50 (i.v. dose required to lower blood pressure by 50% of the maximal response)” value in series [2] turned out to be 0.039 µmol/kg.

As for `CC[C@H](C)CNC(=O)[C@H]1CCCCNC(=O)CC[C@H](NC(=O)OC(C)(C)C)C(=O)N[C@@H](CC2CCCCC2)[C@H]1O`, in series [1] (from CC[C@H](C)CNC(=O)[C@@H](CCCCN)[C@H](O)[C@H](CC1CCCCC1)NC(=O)[C@H](CCC(=O)O)NC(=O)OC(C)(C)C, 120.3 h, 2 steps), the ring closure, yield of all isomers amounted to 62%.

(Values after US5194605A, “Cyclic renin inhibitors containing 2-substituted (3S,4S)-4-amino-5-cyclohexyl-3-hydroxy pentanoic acid, 2-substituted (3S,4S)-5-cyclohexyl-3,4-di-hydroxy pentanoic acid or 2-substituted (4S,5S)-5-amino-6-cyclohexyl-4-hydroxyhexanoic acid or its analogs” (Merck & Co., Inc., priority 1991, dated 1993).)
